Experimental data as given in ChEMBL document CHEMBL1649471, “Nonhuman primates are protected from smallpox virus or monkeypox virus challenges by the antiviral drug ST-246” (2009).
The source made the active and inactive calls. The rule behind the calls is not given here.

Legend:
[1] = system: Monkeypox virus; experiment: Antiviral activity against Monkeypox virus Zaire '79 infected in cynomolgus monkey assessed as inhibition of virus induced skin lesions at 300 mg/kg/day, po administered 72 hrs post infection measured after 14 days; assay type: functional, organism-based
[2] = system: Variola virus; experiment: (§1) Antiviral activity against 1X10'8 PFU Variola virus Harper infected in cynomolgus monkey assessed as survival of animal at 300 mg/kg/day, po administered immediately post infection followed by 5 ml/kg of 30% suspension of hydrated homogenized monkey biscuit measured up to 28 days; assay type: functional, organism-based
[3] = system: Variola virus; experiment: Antiviral activity against 1X10'8 PFU Variola virus Harper infected in cynomolgus monkey assessed as survival of animal at 300 mg/kg/day, po administered 1 day post infection followed by 5 ml/kg of 30% suspension of hydrated homogenized monkey biscuit measured up to 28 days; assay type: functional, organism-based
[4] = system: Variola virus; experiment: Antiviral activity against 1X10'8 PFU Variola virus Harper infected in cynomolgus monkey assessed as decrease in blood viral load at 300 mg/kg/day, po administered immediately post infection followed by 5 ml/kg of 30% suspension of hydrated homogenized monkey biscuit measured up to 28 days; assay type: functional, organism-based
[5] = system: Variola virus; experiment: Antiviral activity against 1X10'8 PFU Variola virus Harper infected in cynomolgus monkey assessed as decrease in blood viral load at 300 mg/kg/day, po administered 1 day post infection followed by 5 ml/kg of 30% suspension of hydrated homogenized monkey biscuit measured up to 28 days; assay type: functional, organism-based
[6] = system: Variola virus; experiment: (§2) Antiviral activity against 1X10'8 PFU Variola virus Harper infected in cynomolgus monkey assessed as log decrease in blood viral load at 300 mg/kg/day, po administered immediately post infection followed by 5 ml/kg of 30% suspension of hydrated homogenized monkey biscuit measured between day 5 to 8; assay type: functional
[7] = system: Variola virus; experiment: (§3) Antiviral activity against 1X10'8 PFU Variola virus Harper infected in cynomolgus monkey assessed as log decrease in blood viral load at 300 mg/kg/day, po administered 1 day post infection followed by 5 ml/kg of 30% suspension of hydrated homogenized monkey biscuit measured between day 5 to 8; assay type: functional
[8] = system: Variola virus; experiment: as §2, with “inhibition of virus-mediated lesion formation” for “log decrease in blood viral load”; assay type: functional, organism-based
[9] = system: Variola virus; experiment: as §3, with “inhibition of virus-mediated lesion formation” for “log decrease in blood viral load”; assay type: functional, organism-based
[10] = system: Variola virus; experiment: as §1, with “percent hematocrit level in” for “survival of”, “after” for “post”, “11” for “up to 28”, “days post infection” for “days”; assay type: functional
[11] = system: Variola virus; experiment: (§4) Antiviral activity against 1X10'8 PFU Variola virus Harper infected in cynomolgus monkey assessed as platelet count in animal at 300 mg/kg/day, po administered immediately after infection followed by 5 ml/kg of 30% suspension of hydrated homogenized monkey biscuit measured 11 days post infection; assay type: functional
[12] = system: Variola virus; experiment: as §4, with “mean corpuscular hemoglobin concentration” for “platelet count”; assay type: functional
[13] = system: Variola virus; experiment: as §4, with “white blood cell” for “platelet”; assay type: functional
[14] = system: Variola virus; experiment: Antiviral activity against 1X10'8 PFU Variola virus Harper infected in cynomolgus monkey assessed as temperature change in animal at 300 mg/kg/day, po administered immediately after infection followed by 5 ml/kg of 30% suspension of hydrated homogenized monkey biscuit measured 11 days post infection; assay type: functional
[15] = system: Variola virus; experiment: (§5) Antiviral activity against 1X10'8 PFU Variola virus Harper infected in cynomolgus monkey assessed as albumin level in animal at 300 mg/kg/day, po administered immediately after infection followed by 5 ml/kg of 30% suspension of hydrated homogenized monkey biscuit measured 11 days post infection; assay type: functional
[16] = system: Variola virus; experiment: as §5, with “alanine amino transferase” for “albumin”; assay type: functional
[17] = system: Variola virus; experiment: as §5, with “[…]” for “albumin”; assay type: functional
[18] = system: Variola virus; experiment: as §5, with “aspartate amino transferase” for “albumin”; assay type: functional
[19] = system: Variola virus; experiment: as §5, with “blood urea nitrogen” for “albumin”; assay type: functional
[20] = system: Variola virus; experiment: Antiviral activity against 1X10'8 PFU Variola virus Harper infected in cynomolgus monkey assessed as creatinine level in animal at 300 mg/kg/day, po administered immediately after infection followed by 5 ml/kg of 30% suspension of hydrated homogenized monkey biscuit measured 11 days post infection; assay type: functional
[21] = system: Variola virus; experiment: as §5, with “total protein” for “albumin”; assay type: functional
[22] = system: Variola virus; experiment: Antiviral activity against 1X10'8 PFU Variola virus Harper infected in cynomolgus monkey assessed as percent hematocrit level in animal at 300 mg/kg/day, po administered 1 day post infection followed by 5 ml/kg of 30% suspension of hydrated homogenized monkey biscuit measured 11 days post infection; assay type: functional
[23] = system: Variola virus; experiment: (§6) Antiviral activity against 1X10'8 PFU Variola virus Harper infected in cynomolgus monkey assessed as platelet count in animal at 300 mg/kg/day, po administered 1 day post infection followed by 5 ml/kg of 30% suspension of hydrated homogenized monkey biscuit measured 11 days post infection; assay type: functional
[24] = system: Variola virus; experiment: as §6, with “mean corpuscular hemoglobin concentration” for “platelet count”; assay type: functional
[25] = system: Variola virus; experiment: Antiviral activity against 1X10'8 PFU Variola virus Harper infected in cynomolgus monkey assessed as white blood cell count in animal at 300 mg/kg/day, po administered 1 day post infection followed by 5 ml/kg of 30% suspension of hydrated homogenized monkey biscuit measured 11 days post infection; assay type: functional
[26] = system: Variola virus; experiment: Antiviral activity against 1X10'8 PFU Variola virus Harper infected in cynomolgus monkey assessed as temperature change in animal at 300 mg/kg/day, po administered 1 day post infection followed by 5 ml/kg of 30% suspension of hydrated homogenized monkey biscuit measured 11 days post infection; assay type: functional
[27] = system: Variola virus; experiment: (§7) Antiviral activity against 1X10'8 PFU Variola virus Harper infected in cynomolgus monkey assessed as albumin level in animal at 300 mg/kg/day, po administered 1 day post infection followed by 5 ml/kg of 30% suspension of hydrated homogenized monkey biscuit measured 11 days post infection; assay type: functional
[28] = system: Variola virus; experiment: as §7, with “alanine amino transferase” for “albumin”; assay type: functional
[29] = system: Variola virus; experiment: Antiviral activity against 1X10'8 PFU Variola virus Harper infected in cynomolgus monkey assessed as […] level in animal at 300 mg/kg/day, po administered 1 day post infection followed by 5 ml/kg of 30% suspension of hydrated homogenized monkey biscuit measured 11 days post infection; assay type: functional
[30] = system: Variola virus; experiment: as §7, with “aspartate amino transferase” for “albumin”; assay type: functional
[31] = system: Variola virus; experiment: Antiviral activity against 1X10'8 PFU Variola virus Harper infected in cynomolgus monkey assessed as blood urea nitrogen level in animal at 300 mg/kg/day, po administered 1 day post infection followed by 5 ml/kg of 30% suspension of hydrated homogenized monkey biscuit measured 11 days post infection; assay type: functional
[32] = system: Variola virus; experiment: Antiviral activity against 1X10'8 PFU Variola virus Harper infected in cynomolgus monkey assessed as creatinine level in animal at 300 mg/kg/day, po administered 1 day post infection followed by 5 ml/kg of 30% suspension of hydrated homogenized monkey biscuit measured 11 days post infection; assay type: functional
[33] = system: Variola virus; experiment: Antiviral activity against 1X10'8 PFU Variola virus Harper infected in cynomolgus monkey assessed as total protein level in animal at 300 mg/kg/day, po administered 1 day post infection followed by 5 ml/kg of 30% suspension of hydrated homogenized monkey biscuit measured 11 days post infection; assay type: functional
[34] = system: Variola virus; experiment: (§8) Antiviral activity against 1X10'8 PFU Variola virus Harper infected in cynomolgus monkey assessed as platelet count in animal at 300 mg/kg/day, po administered 1 day post infection followed by 5 ml/kg of 30% suspension of hydrated homogenized monkey biscuit measured 9 days post infection; assay type: functional
[35] = system: Variola virus; experiment: as §8, with “mean corpuscular hemoglobin concentration” for “platelet count”; assay type: functional
[36] = system: Variola virus; experiment: Antiviral activity against 1X10'8 PFU Variola virus Harper infected in cynomolgus monkey assessed as creatinine level in animal at 300 mg/kg/day, po administered 1 day post infection followed by 5 ml/kg of 30% suspension of hydrated homogenized monkey biscuit measured 9 days post infection; assay type: functional
[37] = system: Variola virus; experiment: Antiviral activity against 1X10'8 PFU Variola virus Harper infected in cynomolgus monkey assessed as percent hematocrit level in animal at 300 mg/kg/day, po administered 3 days post infection followed by 5 ml/kg of 30% suspension of hydrated homogenized monkey biscuit measured 9 days post infection; assay type: functional
[38] = system: Variola virus; experiment: Antiviral activity against 1X10'8 PFU Variola virus Harper infected in cynomolgus monkey assessed as platelet count in animal at 300 mg/kg/day, po administered 3 days post infection followed by 5 ml/kg of 30% suspension of hydrated homogenized monkey biscuit measured 9 days post infection; assay type: functional
[39] = system: Variola virus; experiment: Antiviral activity against 1X10'8 PFU Variola virus Harper infected in cynomolgus monkey assessed as white blood cell count in animal at 300 mg/kg/day, po administered 3 days post infection followed by 5 ml/kg of 30% suspension of hydrated homogenized monkey biscuit measured 9 days post infection; assay type: functional
[40] = system: Variola virus; experiment: Antiviral activity against 1X10'8 PFU Variola virus Harper infected in cynomolgus monkey assessed as blood urea nitrogen level in animal at 300 mg/kg/day, po administered 3 days post infection followed by 5 ml/kg of 30% suspension of hydrated homogenized monkey biscuit measured 9 days post infection; assay type: functional
[41] = system: Cynomolgus monkey; experiment: Immunostimulatory activity in cynomolgus monkey infected with 1X10'8 PFU Variola virus Harper assessed as level of IgM at 300 mg/kg/day, po followed by 5 ml/kg of 30% suspension of hydrated homogenized monkey biscuit measured on day 7 by ELISA; assay type: functional, organism-based; settings: Macaca fascicularis
[42] = system: Cynomolgus monkey; experiment: Immunostimulatory activity in cynomolgus monkey infected with 1X10'8 PFU Variola virus Harper assessed as level of IgG at 300 mg/kg/day, po followed by 5 ml/kg of 30% suspension of hydrated homogenized monkey biscuit measured on day 7 by ELISA; assay type: functional, organism-based; settings: Macaca fascicularis
[43] = system: Monkeypox virus; experiment: Antiviral activity against Monkeypox virus Zaire '79 infected in cynomolgus monkey assessed as survival of monkey at 300 mg/kg/day, po administered 24 hrs post infection followed by 5 ml/kg of 30% suspension of hydrated homogenized monkey biscuit measured after 14 days; assay type: functional, organism-based
[44] = system: Monkeypox virus; experiment: Antiviral activity against Monkeypox virus Zaire '79 infected in cynomolgus monkey assessed as survival of monkey at 300 mg/kg/day, po administered 72 hrs post infection followed by 5 ml/kg of 30% suspension of hydrated homogenized monkey biscuit measured after 14 days; assay type: functional, organism-based
[45] = system: Monkeypox virus; experiment: Antiviral activity against Monkeypox virus Zaire '79 infected in cynomolgus monkey assessed as log decrease in viral load at 300 mg/kg/day, po administered 24 hrs post infection followed by 5 ml/kg of monkey biscuit measured after 14 days; assay type: functional
[46] = system: Monkeypox virus; experiment: Antiviral activity against Monkeypox virus Zaire '79 infected in cynomolgus monkey assessed as log decrease in viral load at 300 mg/kg/day, po administered 72 hrs post infection measured after 14 days; assay type: functional
[47] = system: Monkeypox virus; experiment: Antiviral activity against Monkeypox virus Zaire '79 infected in cynomolgus monkey assessed as inhibition of virus induced skin lesions at 300 mg/kg/day, po administered 24 hrs post infection measured after 14 days; assay type: functional, organism-based

In the case of `O=C(NN1C(=O)[C@@H]2[C@@H]3C=C[C@@H]([C@H]4C[C@@H]34)[C@@H]2C1=O)c1ccc(C(F)(F)F)cc1` [TECOVIRIMAT], the Activity [1] is reported as “Active”, the Activity [2] is reported as “Active” and the Activity [3] is reported as “Active”. For the same compound, the Activity [4] was “Active”, the Activity [5] was “Active” and the FC [6] was 3. For the same compound, the FC [7] was 3, the inhibition [8] was “Active” and the inhibition [9] was “Active”. For the same compound, the Activity [10] was 44.3%, the Activity [11] was 329 ×10³ /uL and the Activity [12] was 31.7 g/dL. The Activity [13] was 8.2 ×10³ /uL, the Activity [14] was 38 °C and the Activity [15] was 2.47 g/dL. It also gave an Activity [16] of 49.7 U/L, an Activity [17] of 277 U/L and an Activity [18] of 55 U/L. It also gave an Activity [19] of 19 mg/dL, an Activity [20] of 0.73 mg/dL and an Activity [21] of 6.37 g/dL. It also gave an Activity [22] of 49.6%, an Activity [23] of 341 ×10³ /uL and an Activity [24] of 31.1 g/dL. The Activity [25] was 7.5 ×10³ /uL, the Activity [26] was 37.3 °C and the Activity [27] was 2.9 g/dL. The Activity [28] was 60.3 U/L, the Activity [29] was 141 U/L and the Activity [30] was 58 U/L. The Activity [31] was 18.7 mg/dL, the Activity [32] was 0.7 mg/dL and the Activity [33] was 6.43 g/dL. The Activity [34] was 350 ×10³ /uL, the Activity [35] was 30.9 g/dL and the Activity [36] was 0.9 mg/dL. It also gave an Activity [37] of 35.9%, an Activity [38] of 406 ×10³ /uL and an Activity [39] of 12.3 ×10³ /uL. For the same compound, the Activity [40] was 10.7 mg/dL, the Activity [41] was “Active” and the Activity [42] was “Active”. For the same compound, the Activity [43] was “Active”, the Activity [44] was “Active” and the FC [45] was 5. The FC [46] was 5 and the Activity [47] was “Active”.
